Laboratory results as given in patent publication US9284325B2, “Spectinamides as anti-tuberculosis agents” (UNIVERSITY OF TENNESSEE RESEARCH FOUNDATION, priority 2009, dated 2016).
≈ marks a conversion by molar mass, not a printed value. Counter-ions that a name gives are not always drawn. Like-named read-outs stand apart in the source and are kept apart here.

Tests used:
M. tuberculosis H37Rv = assay: MIC determination by microbroth dilution, anti-tuberculosis activity; format: cell-based, Mycobacterium tuberculosis
[1] = test system: S. aureus 8325 or strain ATCC 29213; assay: MIC determination by microbroth dilution; format: cell-based, Staphylococcus aureus; details: S. aureus 8325 or strain ATCC 29213 (for 1471-1544); for MIC: Staphylococcus aureus, ATCC29213
[2] = test system: Strep. pyogenes ATCC 700294; assay: MIC determination by microbroth dilution; format: cell-based, Streptococcus pyogenes; details: for MIC: Streptococcus pyogenes, ATCC700294, read-out: MIC S. pyogenes
[3] = test system: Strep. pneumoniae DAW27 or strain R6; assay: MIC determination by microbroth dilution; format: cell-based, Streptococcus pneumoniae; details: Strep. pneumoniae DAW27 or strain R6 (for 1443-1544); for MIC: Streptococcus pneumoniae, read-out: MIC S. pneumoniae
E. faecalis ATCC 33186 = assay: MIC determination by microbroth dilution; format: cell-based, Enterococcus faecalis; details: for MIC: Enterococcus faecalis, ATCC33186
B. anthracis Sterne 34F2 = assay: microbe, parasite or virus in culture; format: cell-based, Bacillus anthracis; details: for MIC: Bacillus anthracis, STERNE34F2, read-out: MIC B. anthracis 34F2
[4] = test system: Burkholderia cepacia ATCC 25416; assay: MIC determination by microbroth dilution; format: cell-based; details: for MIC: ATCC25416, read-out: MIC B. cepcia
[5] = test system: Proteus mirabilis ATCC 25933; assay: MIC determination by microbroth dilution; format: cell-based; details: for MIC: ATCC25933
[6] = test system: Proteus vulgaris ATCC 33420; assay: MIC determination by microbroth dilution; format: cell-based; details: for MIC: ATCC33420
[7] = test system: Klebsiella pneumoniae ATCC 33495; assay: MIC determination by microbroth dilution; format: cell-based; details: for MIC: ATCC33495
[8] = test system: Acinetobacter baumannii ATCC 19606; assay: MIC determination by microbroth dilution; format: cell-based; details: for MIC: ATCC19606
P. aeruginosa PAO1 = assay: MIC determination by microbroth dilution; format: cell-based, Pseudomonas aeruginosa; details: for MIC: Pseudomonas aeruginosa
[9] = test system: Strenotrophomonas maltophilia ATCC 13637; assay: MIC determination by microbroth dilution; format: cell-based
E. coli K12 = assay: MIC determination by microbroth dilution; format: cell-based, Escherichia coli; details: for MIC: Escherichia coli, K12
E. coli K12 ΔtolC = assay: microbe, parasite or virus in culture; format: cell-based; details: for MIC: Escherichia coli, read-out: MIC E. coli K12 ΔtolC
E. coli ribosomes = format: biochemical; details: for IC50, 50% inhibition of luciferase biosynthesis in S30 assay: E. coli S30 transcription/translation assay; for relative inhibitory activity on luciferase production: tested at 0.66 and 6.6 μM, FIG. 5
[10] = Mycobacterium tuberculosis, H37RV, 168 h, read-out: MIC

Row | Molecule | MIC (M. tuberculosis H37Rv; [10]) | MIC [1] | MIC [2] | MIC [3] | MIC (E. faecalis ATCC 33186) | MIC (B. anthracis Sterne 34F2) | MIC [4] | MIC [5] | MIC [6] | MIC [7] | MIC [8] | MIC (P. aeruginosa PAO1) | MIC [9] | MIC (E. coli K12) | MIC (E. coli K12 ΔtolC) | IC50, 50% inhibition of luciferase biosynthesis in S30 assay (E. coli ribosomes) | relative inhibitory activity on luciferase production (E. coli ribosomes) | further results
1 | CN[C@@H]1[C@H](O)[C@H](NC)C2O[C@]3(O)C(OC2[C@H]1O)O[C@H](C)C[C@H]3NC(=O)Cc1cscn1 (stereo partly drawn) [Compound 1443, 3′-Dihydro-3′-deoxy-4(R)-(thiazol-4-yl)acetylamino spectinomycin trihydrobromide] | 1.6 µg/mL | 50 µg/mL | 6.25 µg/mL | 12.5 µg/mL | 50 µg/mL | 1.6 µg/mL | > 200 µg/mL | > 200 µg/mL | > 200 µg/mL | 100 µg/mL | > 200 µg/mL | > 200 µg/mL | > 200 µg/mL | 100 µg/mL | 200 µg/mL | 0.29 µg/mL |  | 
2 | CN[C@@H]1[C@H](O)[C@H](NC)C2O[C@]3(O)C(OC2[C@H]1O)O[C@H](C)C[C@H]3NC(=O)CCc1cccnc1 (stereo partly drawn) [Compound 1299, 3′-Dihydro-3′-deoxy-4(R)-(3-pyridin-3-yl)propionylamino spectinomycin Dihydrochloride] | 25 µg/mL | 200 µg/mL | 200 µg/mL | 200 µg/mL | > 200 µg/mL | 200 µg/mL | > 200 µg/mL | > 200 µg/mL | > 200 µg/mL | > 200 µg/mL | > 200 µg/mL | > 200 µg/mL | > 200 µg/mL | > 200 µg/mL | 200 µg/mL | 0.97 µg/mL |  | 
3 | CN[C@@H]1[C@H](O)[C@H](NC)C2O[C@]3(O)C(OC2[C@H]1O)O[C@H](C)C[C@H]3NCCC(C)C (stereo partly drawn) [Compound 1420, 3′-Dihydro-3′-deoxy-4(R)-(3-methyl)butylamino spectinomycin Trihydrochloride] | 200 µg/mL | 100 µg/mL | 200 µg/mL | 100 µg/mL | 200 µg/mL | 50 µg/mL | > 200 µg/mL | > 200 µg/mL | > 200 µg/mL | > 200 µg/mL | > 200 µg/mL | 200 µg/mL | 200 µg/mL | 100 µg/mL | 25 µg/mL |  | inhibited well | 
4 | CN[C@@H]1[C@H](O)[C@H](NC)C2O[C@]3(O)C(OC2[C@H]1O)O[C@H](C)C[C@H]3NC(=O)Cc1c[nH]cn1 (stereo partly drawn) [Compound 1466, 3′-Dihydro-3′-deoxy-4(R)-(1H-imidazol-4-yl)acetylamino spectinomycin tetradrobromide] | 6.25 µg/mL (≈ 14.2 µM) | > 200 µg/mL | 25 µg/mL (≈ 56.6 µM) | 12.5 µg/mL (≈ 28.3 µM) | > 200 µg/mL | > 200 µg/mL | > 200 µg/mL | > 200 µg/mL | > 200 µg/mL | > 200 µg/mL | > 200 µg/mL | > 200 µg/mL | > 200 µg/mL | 100 µg/mL (≈ 227 µM) | 50 µg/mL (≈ 113 µM) | 0.57 µg/mL |  | 
5 | CN[C@@H]1[C@H](O)[C@H](NC)C2O[C@]3(O)C(OC2[C@H]1O)O[C@H](C)C[C@H]3NC(=O)Cc1cccnc1 (stereo partly drawn) [Compound 1368, 3′-Dihydro-3′-deoxy-4(R)-(pyridin-3-yl)acetylamino spectinomycin Dihydrochloride] | 12.5 µg/mL | 50 µg/mL | > 200 µg/mL | > 200 µg/mL | > 200 µg/mL | 6.25 µg/mL | > 200 µg/mL | > 200 µg/mL | > 200 µg/mL | > 200 µg/mL | > 200 µg/mL | > 200 µg/mL | > 200 µg/mL | 100 µg/mL | > 200 µg/mL | 1.08 µg/mL |  | 
6 | CN[C@@H]1[C@H](O)[C@H](NC)C2O[C@]3(O)C(OC2[C@H]1O)O[C@H](C)C[C@H]3NC(=O)c1ccc(F)cc1 (stereo partly drawn) [Compound 1364, 3′-Dihydro-3′-deoxy-4(R)-4-fluorobenzoylamino spectinomycin Dihydrochloride] | 50 µg/mL | > 200 µg/mL | 100 µg/mL | > 200 µg/mL | > 200 µg/mL | 200 µg/mL | > 200 µg/mL | > 200 µg/mL | > 200 µg/mL | > 200 µg/mL | > 200 µg/mL | > 200 µg/mL | > 200 µg/mL | > 200 µg/mL | 100 µg/mL |  | less active than 1329 | 
7 | CN[C@@H]1[C@H](O)[C@H](NC)C2O[C@]3(O)C(OC2[C@H]1O)O[C@H](C)C[C@H]3NC(=O)Cc1ccc(F)cn1 (stereo partly drawn) [Compound 1445, 3′-Dihydro-3′-deoxy-4(R)-(5-fluoropyridin-2-yl)acetylamino spectinomycin trihydrobromide] | 0.4 µg/mL | 25 µg/mL | 12.5 µg/mL | 12.5 µg/mL | 25 µg/mL | 25 µg/mL | > 200 µg/mL | > 200 µg/mL | > 200 µg/mL | 100 µg/mL | > 200 µg/mL | > 200 µg/mL | > 200 µg/mL | 100 µg/mL | 200 µg/mL | 0.25 µg/mL |  | 
8 | 3′-Dihydro-3′-deoxy-4(R)-dodecylamino spectinomycin Trihydrochloride [Compound 1421] |  |  |  |  |  |  |  |  |  |  |  |  |  |  |  |  | less active than 1329 | MIC (M. tuberculosis H37Rv): 25 µg/mL; MIC S. aureus [1]: 200 µg/mL; MIC S. pyogenes [2]: 50 µg/mL; MIC S. pneumoniae [3]: 200 µg/mL; MIC E. faecalis (E. faecalis ATCC 33186): 200 µg/mL; MIC B. anthracis 34F2 (B. anthracis Sterne 34F2): 200 µg/mL; MIC B. cepcia [4]: 50 µg/mL; MIC P. mir [5]: >200 µg/mL; MIC P. vul [6]: >200 µg/mL; MIC K. pneu. [7]: >200 µg/mL; MIC A. bau. [8]: 50 µg/mL; MIC P. aer. (P. aeruginosa PAO1): >200 µg/mL; MIC S. mal [9]: 12.5 µg/mL; MIC E. coli K12 (E. coli K12; E. coli K12): 200 µg/mL; MIC E. coli K12 ΔtolC (E. coli K12 ΔtolC; tolC knockout strain, defective multi-drug efflux pump): 50 µg/mL
9 | CN[C@@H]1[C@H](O)[C@H](NC)C2O[C@]3(O)C(OC2[C@H]1O)O[C@H](C)C[C@H]3NC(=O)CC(C)C (stereo partly drawn) [Compound 1369, 3′-Dihydro-3′-deoxy-4(R)-(3-methyl)-butanoylamino spectinomycin Dihydrochloride] | 200 µg/mL | > 200 µg/mL | > 200 µg/mL | > 200 µg/mL | > 200 µg/mL | 200 µg/mL | > 200 µg/mL | > 200 µg/mL | > 200 µg/mL | > 200 µg/mL | > 200 µg/mL | > 200 µg/mL | > 200 µg/mL | > 200 µg/mL | > 200 µg/mL |  | less active than 1329 | 
10 | CN[C@@H]1[C@H](O)[C@H](NC)C2O[C@]3(O)C(OC2[C@H]1O)O[C@H](C)C[C@H]3NC(=O)c1cnccn1 (stereo partly drawn) [Compound 1453, 3′-Dihydro-3′-deoxy-4(R)-(pyrazine-2-yl)carboxylicamino spectinomycin tetrahydrobromide] | > 200 µg/mL | > 200 µg/mL | 25 µg/mL | 25 µg/mL | > 200 µg/mL | > 200 µg/mL | > 200 µg/mL | > 200 µg/mL | > 200 µg/mL | > 200 µg/mL | > 200 µg/mL | > 200 µg/mL | > 200 µg/mL | > 200 µg/mL | 200 µg/mL | 1.04 µg/mL |  | 
11 | CN[C@@H]1[C@H](O)[C@H](NC)C2O[C@]3(O)C(OC2[C@H]1O)O[C@H](C)C[C@H]3NCc1cccc(OC)c1 (stereo partly drawn) [Compound 1423, 3′-Dihydro-3′-deoxy-4(R)-(3-methoxy)benzylamino spectinomycin Trihydrochloride] | 200 µg/mL | 200 µg/mL | 25 µg/mL | 200 µg/mL | > 200 µg/mL | 200 µg/mL | > 200 µg/mL | > 200 µg/mL | > 200 µg/mL | > 200 µg/mL | > 200 µg/mL | > 200 µg/mL | > 200 µg/mL | 200 µg/mL | 100 µg/mL |  | inhibited well | 
12 | CN[C@@H]1[C@H](O)[C@H](NC)C2O[C@]3(O)C(OC2[C@H]1O)O[C@H](C)C[C@H]3NC(=O)c1ccco1 (stereo partly drawn) [Compound 1365, 3′-Dihydro-3′-deoxy-4(R)-furan-2-carboxylicamino spectinomycin Dihydrochloride] | 100 µg/mL | > 200 µg/mL | > 200 µg/mL | > 200 µg/mL | > 200 µg/mL | > 200 µg/mL | > 200 µg/mL | > 200 µg/mL | > 200 µg/mL | > 200 µg/mL | > 200 µg/mL | > 200 µg/mL | > 200 µg/mL | > 200 µg/mL | 200 µg/mL |  | less active than 1329 | 
